Values after ≈ are worked out from the molar mass of the structure shown. Where two headings read alike, the source gives them in different places.

For data set [1] the following is noted: water solubility measurements at pH 7.0 in an aspect, cited from earlier work.
Data set [2] can be described thus: Water solubility of saturated solutions at pH 7.0, measured by HPLC. As to conditions: metalaxyl and prothioconazole as separate compounds (0.2 g each in one bottle), 10 mL pH 7.0 buffer, stirred about 12 hours at 20° C.±1° C.
Protocol: A saturated solution of metalaxyl and prothioconazole as separate compounds was prepared by the following procedure: 0.2 grams each of metalaxyl and prothioconazole were weighed and placed into a 0.5 oz bottle. 10 mL of pH 7.0 (Fisher #SB107-500) was added to the bottle. A magnetic stir bar was added to the bottle and the bottle was capped and shaken. The bottle was placed on a magnetic stirrer for about 12 hours at a temperature of 20° C.±1° C. stirring on low.
10 mL of pH 7.0 (Fisher #SB107-500) was added to the bottle. A magnetic stir bar was added to the bottle and the bottle was capped and shaken. The bottle was placed on a magnetic stirrer for about 12 hours in a room at 20° C.±1° C., stirring on low.

`COCC(=O)N(c1c(C)cccc1C)C(C)C(=O)OC` (racemic) [metalaxyl, N-(2,6-dimethylphenyl)-N-(methoxyacetyl)-DL-alanine methyl ester]: the water solubility entry in data set [1] (at 22° C.) is “about 8.4 g/l”. For the same compound, the “solubility at pH 7.0” value in data set [2] was found to be 0.62%.

For `OC(Cc1ccccc1Cl)(Cn1nc[nH]c1=S)C1(Cl)CC1` (stereo not shown) [prothioconazole, 2-[2-(1-chlorocyclopropyl)-3-(2-chlorophenyl)-2-hydroxypropyl]-1,2-dihydro-3H-1,2,4-triazole-3-thione], the water solubility in data set [1] (at 25° C.) is 0.61 µg/mL (≈ 1.77 µM). In data set [2], the “solubility at pH 7.0” value is recorded as 0.0002%.

The record behind these values is patent US9795137B2, “Metalaxyl and prothioconazole cocrystals and methods of making and using” (Bayer CropScience LP, priority 2012, dated 2017).
